Literature values in US20090286795A1, “USE OF VASCULAR ENDOTHELIAL GROWTH FACTOR RECEPTOR INHIBITORS FOR THE TREATMENT OF CANCER” (priority 2006, published 2009).

Details: studies in humans

Question: What does the source list for `Clc1ccc(Nc2nnc(Cc3ccncc3)c3ccccc23)cc1` [PTK787, 1-(4-chloroanilino)-4-(4-pyridylmethyl)phthalazine]?
Answer: tolerability in humans: well tolerated; tumor vascular permeability: reduce tumor vascular permeability
